In patent US4668698A, “[(4-phenyl-1,3-dioxan-cis-5-yl)alkyl]phenylalkanoic acid derivatives” (Imperial Chemical Industries PLC, priority 1983, dated 1987) one finds pA2 and ED50 data, which are given here for two molecules.

Each structure is given as a SMILES string.

Assay [1] deals with rabbit aortal strip (TXA2 mimetic agent U46619 as agonist). The assay is described as follows: rabbit aortal strip model, antagonism of the TXA2 mimetic U46619 (test a). The class given is cell-based. From the text:
(a) The rabbit aortal strip model devised by Piper and Vane (Nature, 1969, 223, 29-35) using as agonist the TXA2 mimetic agent known as U46619 (R. L. Jones et alia in "Chemistry, Biochemistry and Pharmacological Activity of Prostanoids", eds. S. M. Roberts and F. Scheinmann, at p. 211; Pergamon Press, 1979);

The test system of assay [2] is blood pressure at the carotid artery. The assay is described as follows: hypertensive effect of U46619 in anaesthetised rats (test d). The following applies: Rattus norvegicus, iv; intravenously via the jugular vein, anaesthetised male rats, n=3; read-out: ED50 (dose necessary to produce 50% of the maximum hypertensive effect). The class given is in vivo, rats (Alderley Park strain). The protocol: (d) Male rats (Alderley Park strain) are anaesthetised with sodium pentobarbital and blood pressure is monitored at the carotid artery. The TXA2 mimetic agent U46619 is administered intravenously via the jugular vein and an ED50 (dose necessary to produce 50% of the maximum hypertensive effect) is established (n=3). The ED50 for U46619 is approximately 5 μg/kg. A test compound is then administered either intravenously via the jugular vein or orally via a cannula directly into the stomach and the animal challenged with an ED50 dose of U46619, five minutes after dosing with test compound and then successively every ten minutes until the hypertensive effect of U46619 is no longer blocked.

For orientation: pA2 means a measure of antagonist potency on a negative log scale. Read a low pA2 as a weaker antagonist. In general, ED50 refers to the midpoint of the dose-response relation.

For `CC1(C)OC[C@H](Cc2ccccc2CCCC(=O)O)[C@H](c2ccccc2O)O1` (relative stereo) [Example 3, 4-(o-[2,2-dimethyl-4-o-hydroxyphenyl-1,3 dioxan cis-5-ylmethyl]phenyl)butanoic acid], the pA2 in assay [1] was found to be 6.19.
For `CCCCC[C@H](O)/C=C/[C@@H]1[C@@H](C/C=C\CCCC(=O)O)[C@H]2CO[C@@H]1C2` [Example U46619], the ED50 in assay [2] was around 5 µg/kg.
